Laboratory results: PMC4995014, “Identification of ABC Transporter Interaction of a Novel Cyanoquinoline Radiotracer and Implications for Tumour Imaging by Positron Emission Tomography” (PLoS ONE, 2016)

What was measured:
MCF7 cells = assay: SRB cell viability assay in MCF7 cells; type: cell-based; details: Homo sapiens, 72 h
Procedure: (§1) Cell viability by the sulforhodamine B (SRB) assay was used to assess cell growth and cytotoxicity of test compounds [29]. Cells were seeded at densities of 3,500 to 5,000 cells per well in 96 well plates overnight and pre-treated for 1 h with ABC transporter modulators: 10 μM fumitremorgin C (FTC; in MCF7MX and MCF7 cells), or 0.3 μM of zosuquidar (in 3T3 and 3T3-MDR1). Cells were then treated with test compounds for 72 h, at 37°C. After drug treatment, cells were fixed by addition of 50% trichloroacetic acid (TCA), and the plates washed and dried to allow staining with 0.4% solution of sulforhodamine B (Sigma) in 1% acetic acid for 30 minutes. Excess dye was removed upon washing with 1% acetic acid. Plates were dried and bound protein was solubilised upon addition of 150 μL of 10 mM Tris base buffer. Absorbance was measured at 540 nm using Thermo Multiskan-Ex plate reader. Cell viability versus compound concentration curves were plotted as a percentage of control cells. The concentration of drug that gave 50% inhibition in cell growth (GI50) was extrapolated from these curves using the sigmoid curve fit with variable slope in Prism (GraphPad Prism version 5.01, GraphPad Software, San Diego California USA). Three to six replicate wells were used for each drug concentration and experiments were carried out on three separate occasions for each compound.

MCF7MX cells = assay: SRB cell viability assay in MCF7MX cells (ABCG2 overexpressing); type: cell-based, human; details: for GI50: Homo sapiens, MCF7/MX, 72 h, SRB
Procedure: as §1

3T3 cells = assay: SRB cell viability assay in 3T3 cells; type: cell-based; details: Mus musculus, NIH3T3, 72 h
Procedure: as §1

[1] = target: T1, EGFR Del E746-A750/T790M (PC9ER cells) (Homo sapiens, UniProt P00533, DEL746-750/T790M); assay: Inhibition of EGFR autophosphorylation (p-EGFR Y1068, western blot) in PC9ER cells; type: cell-based
T1 construct: endogenous in cells; host or cells: PC9ER (Dr Olivier Pardo, Imperial College London)
T1 sequence (P00533 with tags, fused parts or gaps DEL746-750/T790M): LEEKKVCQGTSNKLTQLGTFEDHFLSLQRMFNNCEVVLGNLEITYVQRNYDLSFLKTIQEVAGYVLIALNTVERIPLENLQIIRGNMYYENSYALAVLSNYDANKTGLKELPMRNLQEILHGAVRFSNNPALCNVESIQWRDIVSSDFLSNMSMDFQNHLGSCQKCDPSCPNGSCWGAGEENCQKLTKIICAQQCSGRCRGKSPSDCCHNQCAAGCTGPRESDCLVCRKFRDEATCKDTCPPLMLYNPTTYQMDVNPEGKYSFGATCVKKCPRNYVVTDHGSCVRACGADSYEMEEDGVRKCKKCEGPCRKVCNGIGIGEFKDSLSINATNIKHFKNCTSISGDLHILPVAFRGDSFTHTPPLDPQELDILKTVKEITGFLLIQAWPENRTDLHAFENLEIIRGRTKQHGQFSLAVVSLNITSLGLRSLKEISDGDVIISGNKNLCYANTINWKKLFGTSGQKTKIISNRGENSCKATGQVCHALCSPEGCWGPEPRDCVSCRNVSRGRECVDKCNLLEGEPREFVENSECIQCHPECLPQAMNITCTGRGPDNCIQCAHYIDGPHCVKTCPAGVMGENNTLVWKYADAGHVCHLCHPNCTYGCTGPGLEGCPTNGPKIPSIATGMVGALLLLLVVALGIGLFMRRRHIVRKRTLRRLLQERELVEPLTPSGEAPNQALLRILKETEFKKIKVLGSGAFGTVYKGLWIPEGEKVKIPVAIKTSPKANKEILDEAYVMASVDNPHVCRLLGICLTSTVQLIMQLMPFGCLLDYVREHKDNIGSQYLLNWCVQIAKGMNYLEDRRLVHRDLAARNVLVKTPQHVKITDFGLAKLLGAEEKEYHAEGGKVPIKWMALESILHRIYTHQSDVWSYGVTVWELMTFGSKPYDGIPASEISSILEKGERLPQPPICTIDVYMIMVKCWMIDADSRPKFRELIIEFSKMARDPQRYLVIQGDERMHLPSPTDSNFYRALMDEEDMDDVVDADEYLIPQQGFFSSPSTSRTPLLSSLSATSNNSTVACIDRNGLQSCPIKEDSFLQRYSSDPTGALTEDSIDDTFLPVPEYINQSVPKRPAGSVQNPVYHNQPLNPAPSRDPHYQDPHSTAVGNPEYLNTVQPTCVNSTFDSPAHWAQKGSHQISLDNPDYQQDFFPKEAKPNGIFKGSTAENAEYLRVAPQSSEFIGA
Procedure: (§2) Affinity of the cyanoquinolines for EGFR was established by measuring their inhibition of EGFR autophosphorylation via western blot. Cells were seeded in 6 well plates and following 24 h of growth, were subject to overnight serum starvation. The cells were then treated with increasing concentrations of cyanoquinolines prepared in serum free growth media from a DMSO stock (final DMSO concentration < 1%) for 3 h at 37°C, and stimulated for receptor autophosphorylation by addition of 100 ng/mL of EGF during the last 15 minutes of drug incubation. After 3 h the cells were placed on ice, media removed and then the cells were washed two times with ice cold phosphate buffered saline (PBS). Lysates were analysed by western blot to measure changes to p-EGFR Y1068.
Cells were collected into a microcentrifuge tube and sonicated for 30 seconds on ice. Cellular protein levels were assessed using a bicinchoninic acid (BCA) protein assay kit according to the manufacturer’s instructions (Thermo scientific). […] Samples were transferred to polyvinylidene difluoride (PVDF) membrane using Trans-Blot Turbo system BIO-RAD (Hercules, California, USA). […] The membranes were then incubated overnight with primary antibody prepared in 1% milk or 1% BSA in TBST. […] Membranes were washed a further three times for 10 minutes with TBST. Blots were visualised using chemoluminescence (ECL, GE Healthcare, Little Chalfont, UK) and developed on Amersham Hyperfilm ECL (GE Healthcare). β-Actin was used as a loading control.

active mutant EGFR = assay: Inhibition of EGFR autophosphorylation in active mutant EGFR expressing cell lines (H1650, PC9, H3255); type: cell-based; details: H1650 (del 746–750), PC9 (del 746–750) and H3255 (L858R) cells; read-out: IC50 p-EGFR Y1068 in active mutant EGFR expressing cell lines
Procedure: as §2
Cell lysates were prepared by addition of radioimmunoprecipitation assay (RIPA) buffer (50mM Tris-HCl pH 7.2, 150mM NaCl, 1% NP40, 1% sodium deoxycholate, 0.1% sodium dodecyl sulfate) supplemented with 1 x protease and phosphatase inhibitor cocktail (1mM 4-(2-Aminoethyl)benzenesulfonylfluoride hydrochloride, 800 nM aprotinin, 50 μM bestatin, 15 μM E-64, 5μM EDTA, 20 μM leupeptin, 10 μM pepstatin A; Thermo scientific, Waltham, Massachusetts, USA). […] Cellular protein levels were assessed using a bicinchoninic acid (BCA) protein assay kit according to the manufacturer’s instructions (Thermo scientific). […]

EGFR = system: EGFR; parameters: method as in PMID 20797871, PMID 24307532; details: cell-free; read-out: IC50 for inhibition of cell-free EGFR phosphorylation; cited from earlier work
[2] = 1 h pre-treatment with 10 μM FTC

GI50 (MCF7 cells; [2]): 12.3 ± 7.1 µM
GI50 (MCF7 cells; without FTC): 12 ± 6.93 µM
fold increase in GI50 in the ABCG2 overexpressing cell line (MCF7MX cells; GI50 MCF7MX over GI50 MCF7, without FTC): 6.3 fold
GI50 (MCF7MX cells; [2]): 37.9 ± 21.9 µM
GI50 (MCF7MX cells; without FTC): 75.9 ± 43.8 µM
IC50 ([1]; 3 h incubation, EGF stimulated): 0.045 µM
fold higher IC50 (p-EGFR) in PC9ER compared to PC9 ([1]; PC9ER versus isogenic PC9): 2 fold
IC50 (active mutant EGFR): 0.008 to 0.04 µM
Compound: CCOc1cc2ncc(C#N)c(Nc3ccc(F)c(Cl)c3)c2cc1NC(=O)/C=C/CNCc1cn(CCF)nn1 [FED6, (2E)-N-{4-[(3-chloro-4-fluorophenyl)amino]-3-cyano-7-ethoxyquinolin-6-yl}-4-({[1-(2-fluoroethyl)-1H-1,2,3-triazol-4-yl]methyl}amino)-but-2-enamide]
GI50 (3T3 cells; pre-treatment with 0.3 μM zosuquidar): 7.8 ± 0.7 µM
GI50 (3T3 cells; without zosuquidar): 10.7 ± 1 µM
IC50 (EGFR): 0.0018 µM
